≈ marks a conversion by molar mass, not a printed value.

Among the test systems are Escherichia coli; Bacillus subtilis; Bacillus cereus; Staphylococcus aureus.
What all share (assay): ≥ marks a high value that may be exact or a test limit, other limits are often not marked, values filed in µg/mL are converted to µM
For assay [1], the system named is Staphylococcus aureus ATCC 25923.
Assay [2] has as its system Candida albicans ATCC 2002.
Assay [3] has as its system Klebsiella pneumoniae ATCC 700603.
Assay [4] relates to Escherichia coli ATCC 25922.
The test system of assay [5] is Staphylococcus aureus ATCC 6538.
The test system of assay [6] is Pseudomonas aeruginosa ATCC 9027.

In the case of `CC[C@H](C)[C@H](N)C(=O)N[C@@H](CC(N)=O)C(=O)N[C@@H](Cc1c[nH]c2ccccc12)C(=O)N[C@@H](CCCCN)C(=O)N[C@@H](CCCCN)C(=O)N[C@H](C(=O)N[C@@H](Cc1ccccc1)C(=O)N[C@@H](CCC(=O)O)C(=O)N[C@@H](CCCCN)C(=O)N[C@H](C(=O)N[C@@H](CO)C(=O)N[C@@H](CC(N)=O)C(=O)N[C@@H](CC(C)C)C(=O)N[C@H](C(N)=O)C(C)C)C(C)C)[C@@H](C)CC` [INWKKIFEKVSNLV], the MIC against Escherichia coli worked out at 12.5 µM (≈ 21.5 µg/mL); with Bacillus subtilis it was 22.5 µM (≈ 38.6 µg/mL).
Turning to `CC[C@H](C)[C@H](NC(=O)[C@H](CCC(=O)O)NC(=O)[C@H](CCC(=O)O)NC(=O)[C@H](CO)NC(=O)[C@H](CC(C)C)NC(=O)[C@H](CC(C)C)NC(=O)[C@H](Cc1c[nH]c2ccccc12)NC(=O)[C@H](CC(N)=O)NC(=O)[C@H](CCC(=O)O)NC(=O)CNC(=O)[C@H](CC(N)=O)NC(=O)[C@H](CCCCN)NC(=O)[C@H](CC(C)C)NC(=O)[C@H](CO)NC(=O)[C@H](Cc1ccc(O)cc1)NC(=O)[C@@H]1CCCN1)C(=O)N[C@H](C(=O)N[C@@H](CCCN=C(N)N)C(=O)N[C@@H](Cc1ccc(O)cc1)C(=O)N1CCC[C@H]1C(=O)O)[C@@H](C)CC` [PYSLKNGENWLLSEEIIRYP], the figures for the MIC against Bacillus cereus and in the assay with Escherichia coli were not below 106 µM and more than 106 µM, respectively.
For `CSCC[C@H](NC(=O)[C@H](CO)NC(=O)[C@H](Cc1ccccc1)NC(=O)[C@@H](NC(=O)[C@H](C)NC(=O)[C@@H]1CCCN1C(=O)[C@H](Cc1ccccc1)NC(=O)[C@@H](NC(=O)[C@H](CCCCN)NC(=O)[C@H](CO)NC(=O)[C@H](C)NC(=O)[C@H](CC(C)C)NC(=O)[C@H](CCCCN)NC(=O)CNC(=O)[C@@H](NC(=O)[C@H](C)NC(=O)[C@@H](N)CO)C(C)C)C(C)C)C(C)C)C(=O)N[C@H](C(=O)N[C@H](C(=O)N[C@@H](CCCCN)C(=O)O)[C@@H](C)O)C(C)C` [SAVGKLASKVFPAVFSMVTK], in that order: not below 124 µM and more than 124 µM.
For the compound `CC(C)C[C@H](NC(=O)[C@@H](N)Cc1ccccc1)C(=O)NCC(=O)N[C@@H](CCCCN)C(=O)N[C@H](C(=O)N[C@@H](Cc1ccccc1)C(=O)N[C@@H](CCCCN)C(=O)NCC(=O)N[C@@H](C)C(=O)N[C@@H](CO)C(=O)N[C@@H](CCCCN)C(=O)N[C@H](C(=O)N[C@H](C(=O)N1CCC[C@H]1C(=O)N[C@@H](C)C(=O)N[C@H](C(=O)N[C@@H](Cc1ccccc1)C(=O)NCC(=O)N[C@@H](CCCCN)C(=O)N[C@H](C(=O)O)C(C)C)C(C)C)C(C)C)C(C)C)C(C)C` [FLGKVFKGASKVVPAVFGKV], the MIC against Bacillus cereus was not below 123 µM; against Staphylococcus aureus, more than 123 µM; in the assay with Escherichia coli, more than 123 µM.
With `CC[C@H](C)[C@H](NC(=O)[C@H](CC(C)C)NC(=O)[C@H](C)NC(=O)[C@@H]1CCCN1C(=O)[C@H](CC(C)C)NC(=O)CN)C(=O)N[C@@H](CO)C(=O)N[C@@H](Cc1c[nH]c2ccccc12)C(=O)N[C@H](C(=O)N[C@@H](CCCCN)C(=O)N[C@@H](CCCN=C(N)N)C(=O)N[C@@H](CCCCN)C(=O)N[C@@H](CCCN=C(N)N)C(=O)N[C@@H](CCC(N)=O)C(=O)N[C@@H](CCC(N)=O)C(N)=O)[C@@H](C)CC` [GLPALISWIKRKRQQ], the MIC was determined as 3.12 µM (≈ 5.6 µg/mL) against Staphylococcus aureus, 49.5 µM (≈ 88.9 µg/mL) in the assay on Escherichia coli and 3.12 µM (≈ 5.6 µg/mL) against Bacillus subtilis.
As to `CC[C@H](C)[C@H](NC(=O)[C@H](C)NC(=O)[C@H](CCCN=C(N)N)NC(=O)[C@H](Cc1ccc(O)cc1)NC(=O)[C@H](CC(C)C)NC(=O)[C@H](CC(N)=O)NC(=O)[C@H](Cc1ccc(O)cc1)NC(=O)CNC(=O)[C@H](C)NC(=O)[C@@H](NC(=O)[C@@H](NC(=O)[C@@H](NC(=O)[C@H](CCCN=C(N)N)NC(=O)[C@@H](NC(=O)[C@@H](NC(=O)[C@@H](NC(=O)[C@@H]1CCCN1)C(C)C)C(C)C)[C@@H](C)CC)[C@@H](C)O)C(C)C)C(C)C)C(=O)N[C@@H](CCCCN)C(=O)N[C@@H](CCCCN)C(=O)N[C@@H](CCCCN)C(=O)O` [PVVIRTVVAGYNLYRAIKKK], the MIC in assay [1] was 43.7 µM (≈ 100 µg/mL); in assay [2], 16.4 µM (≈ 37.5 µg/mL).
With `CC[C@H](C)[C@H](NC(=O)[C@@H](NC(=O)[C@@H]1CCCN1C(=O)[C@@H](NC(=O)[C@@H]1CCCN1C(=O)[C@H](CCCCN)NC(=O)[C@H](CCCCN)NC(=O)[C@H](CO)NC(=O)CN)C(C)C)[C@@H](C)CC)C(=O)N[C@@H](Cc1ccc(O)cc1)C(=O)N[C@H]1CSSC[C@@H](C(=O)N[C@@H](CCC(N)=O)C(=O)N[C@@H](CCCN=C(N)N)C(=O)N[C@@H](CCSC)C(=O)O)NC(=O)[C@H](CCCCN)NC(=O)CNC(=O)[C@H](CO)NC(=O)[C@H](CCCN=C(N)N)NC(=O)[C@H](CCCN=C(N)N)NC(=O)[C@H](CCC(N)=O)NC1=O` [GSKKPVPIIYCQRRSGKCQRM], the MIC in assay [3] and in assay [4] was 13.1 µM (≈ 32 µg/mL) each time.
`CC(C)C[C@H](NC(=O)[C@@H](N)Cc1ccccc1)C(=O)NCC(=O)N[C@@H](CCCCN)C(=O)N[C@H](C(=O)N[C@@H](Cc1ccccc1)C(=O)N[C@@H](CCCCN)C(=O)N[C@@H](CCCCN)C(=O)N[C@@H](C)C(=O)N[C@@H](CO)C(=O)N[C@@H](CCCCN)C(=O)N[C@H](C(=O)N[C@@H](Cc1ccccc1)C(=O)N1CCC[C@H]1C(=O)N[C@@H](C)C(=O)N[C@H](C(=O)N[C@@H](Cc1ccccc1)C(=O)NCC(=O)N[C@@H](CCCCN)C(=O)N[C@H](C(=O)O)C(C)C)C(C)C)C(C)C)C(C)C` [FLGKVFKKASKVFPAVFGKV]: the MIC with Bacillus cereus is not below 58.2 µM; against Staphylococcus aureus, more than 58.2 µM; in the assay on Escherichia coli, 14.6 µM (≈ 32 µg/mL).
On to `CC[C@H](C)[C@H](NC(=O)[C@@H]1CCCN1C(=O)[C@@H](NC(=O)[C@H](CO)NC(=O)[C@H](CO)NC(=O)[C@@H](N)CO)[C@@H](C)CC)C(=O)N[C@@H](CCCCN)C(=O)N[C@@H](CCSC)C(=O)N[C@H](C(=O)N[C@@H](CC(C)C)C(=O)N[C@H](C(=O)N[C@@H](CCCN=C(N)N)C(=O)N[C@@H](C)C(=O)N[C@@H](CC(C)C)C(=O)N[C@H](C(=O)N[C@@H](Cc1ccccc1)C(=O)N[C@H](C(=O)N[C@@H](CCCCN)C(=O)N[C@@H](CO)C(=O)NCC(=O)O)C(C)C)C(C)C)C(C)C)C(C)C` [SSSIPIKMVLVRALVFVKSG], for which the MIC against Bacillus cereus is not below 120 µM; with Escherichia coli it was more than 120 µM.
For `CC[C@H](C)[C@H](NC(=O)[C@@H]1CCCN1C(=O)[C@H](CO)NC(=O)[C@@H](NC(=O)[C@@H](NC(=O)[C@@H](NC(=O)[C@H](C)NC(=O)[C@H](CC(C)C)NC(=O)[C@H](CCCCN)NC(=O)[C@H](CO)NC(=O)[C@H](C)NC(=O)[C@@H](NC(=O)[C@H](CCCCN)NC(=O)[C@@H](NC(=O)[C@@H](NC(=O)[C@@H](N)CO)[C@@H](C)O)C(C)C)C(C)C)C(C)C)C(C)C)C(C)C)C(=O)N[C@@H](CO)C(=O)N[C@@H](CCCCN)C(=O)NCC(=O)N[C@@H](CO)C(=O)O` [STVKVASKLAVVVSPISKGS], in that order: not below 131 µM and more than 131 µM.
With `CC(C)C[C@H](NC(=O)[C@H](C)NC(=O)[C@H](CCCCN)NC(=O)[C@H](C)NC(=O)[C@H](CC(C)C)NC(=O)[C@H](CCCCN)NC(=O)[C@H](CCCCN)NC(=O)[C@H](C)NC(=O)[C@H](CC(C)C)NC(=O)[C@H](CCCCN)NC(=O)[C@H](C)NC(=O)[C@H](CC(C)C)NC(=O)[C@H](CCCCN)NC(=O)[C@H](CCCCN)NC(=O)[C@H](C)NC(=O)[C@@H](N)Cc1ccccc1)C(N)=O` [FAKKLAKLAKKLAKAL], the MIC in assay [5] was more than 115 µM; in assay [6] it was 115 µM (≈ 200 µg/mL).
As to `CC[C@H](C)[C@H](N)C(=O)N[C@@H](Cc1c[nH]c2ccccc12)C(=O)N[C@@H](CC(N)=O)C(=O)N[C@@H](CCCCN)C(=O)N[C@H](C(=O)N[C@@H](C)C(=O)N[C@@H](CCCCN)C(=O)N[C@@H](CO)C(=O)N[C@H](C(=O)NCC(=O)N[C@@H](CCCCN)C(=O)N[C@H](C(=O)N[C@@H](CC(C)C)C(=O)N[C@@H](CCC(=O)O)C(=O)N[C@@H](CCCCN)C(=O)N[C@@H](C)C(=O)N[C@@H](CC(C)C)C(N)=O)C(C)C)[C@@H](C)CC)[C@@H](C)CC` [IWNKIAKSIGKVLEKAL], the MIC with Escherichia coli was 15 µM (≈ 28.7 µg/mL); in the assay on Bacillus subtilis, not below 35 µM.
For the compound `CC[C@H](C)[C@H](NC(=O)[C@H](CCSC)NC(=O)[C@H](CO)NC(=O)[C@@H](NC(=O)[C@H](CC(C)C)NC(=O)[C@H](CO)NC(=O)[C@@H]1CCCN1C(=O)[C@@H](NC(=O)[C@@H](NC(=O)[C@H](CCCCN)NC(=O)[C@H](CO)NC(=O)[C@H](C)NC(=O)[C@@H](NC(=O)[C@H](CCCN=C(N)N)NC(=O)CNC(=O)[C@@H](NC(=O)[C@H](Cc1ccccc1)NC(=O)[C@H](CO)NC(=O)[C@@H](N)CC(C)C)C(C)C)C(C)C)C(C)C)C(C)C)[C@@H](C)CC)C(=O)N[C@@H](CCCCN)C(=O)O` [LSFVGRVASKVVPSLISMIK], the MIC in the assay on Bacillus cereus is not below 120 µM; against Escherichia coli, 120 µM (≈ 256 µg/mL).
For the compound `CC[C@H](C)[C@H](NC(=O)[C@@H](NC(=O)[C@@H](NC(=O)[C@H](CCCCN)NC(=O)[C@@H](N)Cc1ccccc1)C(C)C)C(C)C)C(=O)N[C@@H](CO)C(=O)N[C@@H](CCCCN)C(=O)N1CCC[C@H]1C(=O)NCC(=O)N[C@@H](CC(C)C)C(=O)N[C@@H](CO)C(=O)N[C@H](C(=O)N[C@@H](CCCN=C(N)N)C(=O)N[C@H](C(=O)NCC(=O)N[C@H](C(=O)N[C@@H](C)C(=O)N[C@@H](CC(C)C)C(=O)N[C@H](C(=O)N[C@H](C(=O)O)[C@@H](C)O)C(C)C)[C@@H](C)O)C(C)C)C(C)C` [FKVVISKPGLSVRVGTALVT], the MIC against Bacillus cereus is not below 61.8 µM; against Escherichia coli it was more than 61.8 µM.

One may read the MIC as the lowest concentration found to suppress growth.
